Entries after “also recorded” stand apart in the source; their conditions may differ. Structures can show the parent of a compound that is named as a salt.
How the values were obtained:
[1] = tested on: zebrafish lateral line hair cells; experiment: PEPITA quantification of ototoxicity in YO-PRO-1-stained AB zebrafish larvae; format: in vivo; conditions: for ototoxic interaction with AZM: co-administration with AZM; for shift toward antagonism in lateral line HC damage as compared to inhibition of the bacterial species on average: interaction with AZM, zebrafish wEOB vs average of E. coli, M. abscessus, S. aureus; for EC75 shift: ototoxin co-administered with azithromycin (AZM) vs administered alone; for ototoxic interaction with clarithromycin (CLM): preliminary experiments; for interaction with neomycin in pairwise screen (wEOB): pairwise screen of NEO against 13 compounds; for HC inhibition: in the absence of AZM, 25 μM CAP, 600 μM CIS; for EC50 shift: ototoxin co-administered with AZM vs alone
Experimental: Therefore, at 5 dpf, larvae were transferred to 12-well plates (5–11 fish per well, 1 well per condition) containing the relevant compound or combination diluted with ICS water, or ICS water alone or high-dose neomycin to serve as controls. Unless otherwise noted, fish were exposed to drug (either an individual compound or a pairwise combination of compounds) for 4 h, as a balance between longer exposure times for accommodating varied kill kinetics and shorter exposure times for technical tractability. Treatments with multiple drugs involved co-administering a prepared solution consisting of both drugs with defined concentrations in ICS water.
Fluorescence microscopy was performed using a Keyence BZ-X800 microscope imaging system, which enables high-throughput semi-automated imaging of 96-well plates.
Each image was masked using automated object detection to include only the fish itself. Manual masks were created on occasion for avoidance of fluorescent contamination, adjusted segmenting for myo6b::gfp fish to remove inner ear HC fluorescence, or exclusion of dead or damaged fish. Each fish was then adjusted for autofluorescence using the fluorophore-free red channel and scored based on the sum of green fluorescence pixel values surrounding 10 of the top 15 brightest pixels in the masked image (Figures 1B–E). These scores were standardized by comparison with the median score of wells containing untreated fish and a score representing no remaining HC fluorescence, both derived for each plate.
Wells where the expected response ( Ra×Rb ) and observed response ( Rab ) were both less than 10% or greater than 90% were excluded from aggregation to reduce the effect of our choice of dose range. The remaining wells were summarized by averaging into a composite interaction score for the combination; we refer to this metric as the “windowed excess over Bliss” (wEOB).

[2] = tested on: zebrafish lateral line hair cells; experiment: Uptake of TexasRed-conjugated neomycin (NEO-TR) into lateral line HCs; format: in vivo, Danio rerio; conditions: for accumulation of NEO-TR within lateral line HCs: NEO-TR 50 μM, 30 min, co-administered AZM 190 µM or BZM 50 µM, myo6b::gfp larvae; for Details (uptake inhibitor mechanism): Table S1, by means other than MET channel inhibition (this study)
Excerpt: To further explore the mechanism of macrolide and aminoglycoside antagonism, we fluorescently labeled the aminoglycosides neomycin and gentamicin with Texas Red-X succinimidyl ester to track HC uptake with and without macrolide treatment (Table 1). To avoid breakdown of fluorescent vital dyes over time, we used larvae with the transgene Tg(myo6b:EGFP); myo6b::gfp, that expressed GFP in their HCs. Drug-induced injury was quantified by loss of fluorescence in HCs. Fish were exposed to the fluorescently-labeled drug with or without macrolide co-administration for 30 min, before being washed in fresh ICS water and anesthetized with 675 µM tricaine. Five fish per condition were transferred to 96-well plates for imaging, as per the drug response testing experiments, while another five were euthanized on ice for 20 min, then fixed in 2% paraformaldehyde for 1 hour at room temperature, to prepare for confocal microscopy. Samples were prepared and GFP fluorescence was acquired following the same confocal imaging procedure as described in Section 2.3; TexasRed fluorescence was acquired with a 595 nm laser and 675/75 emission filter.
For the fish transferred to 96-well plates for imaging, fluorescence microscopy was performed using the Keyence BZ-X800. Using the GFP filter and a TexasRed Filter (630/75 nm emission, 560/40 nm excitation), each myo6b::gfp fish was imaged under a ×2 objective to capture the whole organism in brightfield, green, and red fluorescence channels. Each fish was then imaged under a ×40 objective with z-stacking to track the uptake of the fluorescently labeled aminoglycoside into the HCs in the head of the fish.

[3] = tested on: zebrafish lateral line hair cells; experiment: Lateral line hair cell intracellular calcium imaging and cell death; format: in vivo
Excerpt: For calcium testing, zebrafish expressing HC-specific GCaMP targeted to the inner mitochondrial matrix were crossed with fish expressing a HC specific calcium indicator to create double-transgenic embryos (Tg (myo6b:mitoGCaMP3;myo6b:cytoRGECO), Table 1) with both green fluorescent mitochondrial calcium and red fluorescent cytosolic calcium indicators, then raised as described previously ([McQuate et al., 2023]). Zebrafish embryos were collected from 2-h spawning periods and raised in Petri dishes in embryo medium (EM: 14.97 mM NaCl, 500 μM KCl, 42 µM Na2HPO4, 150 µM KH2PO4, 1 mM CaCl2 dehydrate, 1 mM MgSO4, 0.714 mM NaHCO3, pH 7.2) at a density of 60 larvae per […] dish, in a dark 28.5°C incubator until 5 dpf. Larvae were screened for indicator expression at 4 dpf.
Calcium imaging was performed using an inverted Marianas spinning disk confocal system (Intelligent Imaging Innovations, 3i) with an Evolve 10 MHz EMCCD camera (Photometrics) and a Zeiss C-Apochromat 63x/1.2 numerical aperture water objective. Larvae were 5-6 dpf at the time of imaging. Larvae were first anesthetized in embryo media containing 800 µM tricaine, then stabilized on their sides under a harp, so that posterior neuromasts were exposed to the surrounding media. Imaging was performed at ambient temperature, approximately 25°C. GCaMP fluorescence was acquired with a 488 nm laser and 535/30 emission filter, with an exposure time of 100 ms, and RGECO fluorescence was acquired with a 561 nm laser and 617/73 emission filter and exposure time of 200 ms. Images were taken every 2 minutes as z-stacks through neuromasts in 2 µm steps. Neomycin and azithromycin were dissolved as a 4X stock in EM (described in Section 2.1: Zebrafish Husbandry), then added to the bath to achieve final working concentration after a 10-min baseline. Imaging of neuromasts continued for 50 min. Images were analyzed in ImageJ. Mean fluorescence intensity was measured for ROIs of individual randomly selected HCs (2–3 HCs per NM, see example ROI in Figure 4). For each HC, values were normalized to the average of baseline using Microsoft Excel.

MET channel = experiment: FM1-43 uptake quantification in lateral line HCs (MET channel activity); format: in vivo, Danio rerio; conditions: AZM 190 µM, BZM 50 µM, 30 min, myo6b::gfp larvae
Experimental: FM1-43 experiments were performed with myo6b::gfp fish, raised to 5 dpf as above. Fish were exposed to drug conditions for 30 min, with 4 µM FM1-43 stain added into the drug treatment solution at minute 29, for a 1-min co-treatment stain exposure followed by simultaneous washout of all drugs and stain in fish water and anesthesia in 675 µM tricaine (selection of staining concentration and exposure duration was informed by ([Hernandez et al., 2006]; [Van Trump et al., 2010]; [Thomas et al., 2013]; [Monroe et al., 2016]; [Hailey et al., 2017]; [Majumder et al., 2017]; [Rocha-Sanchez et al., 2018]; [Stawicki et al., 2019]; [Parkinson and Stawicki, 2021]; [Lee et al., 2022]; [Derudas et al., 2023]; [Schrauwen et al., 2023])). Four to seven fish per condition were transferred to 96-well plates for imaging. Using the Keyence BZ-X800 with GFP filter and a custom filter (605/70 nm emission, 470/40 nm excitation), each fish was imaged with a ×2 objective in brightfield and green and red fluorescence channels as above. FM1-43 uptake was validated using benzamil, a known uptake inhibitor ([Rusch et al., 1994]).

## NCC[C@H](O)C(=O)N[C@@H]1C[C@H](N)[C@@H](O[C@H]2O[C@H](CN)[C@@H](O)[C@H](O)[C@H]2O)[C@H](O)[C@H]1O[C@H]1O[C@H](CO)[C@@H](O)[C@H](N)[C@H]1O [Amikacin (AMK), Amikacin sulfate]
[1]
  ototoxic interaction with AZM: otoprotective antagonistic interactions
  shift toward antagonism in lateral line HC damage as compared to inhibition of the bacterial species on average: 31 %pt.
  EC75 shift: 8-fold
  ototoxic interaction with clarithromycin (CLM): antagonistic interactions

## CC[C@H]1OC(=O)[C@H](C)[C@@H](O[C@H]2C[C@@](C)(OC)[C@@H](O)[C@H](C)O2)[C@H](C)[C@@H](O[C@@H]2O[C@H](C)C[C@H](N(C)C)[C@H]2O)[C@](C)(O)C[C@@H](C)CN(C)[C@H](C)[C@@H](O)[C@]1(C)O [Azithromycin, Azithromycin dihydrate]
[2]; listed as AZM
  accumulation of NEO-TR within lateral line HCs: inhibition of NEO-TR uptake; also recorded: reduced HC accumulation of NEO-TR
[2]
  Details (uptake inhibitor mechanism): Prevents neomycin uptake
[3]; NEO 50 µM, AZM 190 µM, calcium imaging
  HC cell death (observation): low levels of cell death
[3]; NEO 50 µM, AZM 190 µM, mitoGCaMP3, cytoRGECO larvae
  HC mitochondrial and cytoplasmic calcium response: occasionally observed increases in mitochondrial calcium
[3]; calcium imaging
  cells that survived: 24/25
MET channel; listed as AZM
  FM1-43 uptake into lateral line HCs: does not significantly hinder FM1-43 uptake; also recorded: did not significantly change FM1-43 accumulation in HCs
[1]; 380µM AZM alone, aggregate dose response, AB and myo6b::gfp fish
  RFU remaining on average: Approximately 65%
[1]; 1 h (acute) and 4 h (extended) treatment, conditions in which monotherapy induced significant damage
  protection against NEO and GEN ototoxicity by co-administration: significant protection
[1]; AZM 380 μM, NEO 0 μM, 4 h
  RFU (residual HC fluorescence): 48%
[1]; capreomycin
  protection from CAP-associated damage by co-administration: significant but less pronounced protection
[1]; cisplatin
  protection against damage caused by higher doses of CIS by co-administration: significant but modest protection
[1]
  interaction with neomycin in pairwise screen (wEOB): one of the strongest antagonizing compounds

## NC(=NCc1ccccc1)NC(=O)c1nc(Cl)c(N)nc1N [BZM, Benzamil]
[2]
  accumulation of NEO-TR within lateral line HCs: inhibition of NEO-TR uptake
MET channel
  FM1-43 uptake into lateral line HCs: does significantly reduce FM1-43 uptake; also recorded: significant inhibition of FM1-43 uptake
[1]
  interaction with neomycin in pairwise screen (wEOB): deviate toward antagonism

## N.N.[Cl][Pt][Cl] [Cisplatin (CIS), Cisplatin]
[1]
  HC inhibition: 81%
  EC50 shift: 1.4 fold
  EC75 shift: 1.8-fold
[1]; listed as CIS
  EC75 shift: 1.8 fold

## CC[C@H]1OC(=O)[C@H](C)[C@@H](O[C@H]2C[C@@](C)(OC)[C@@H](O)[C@H](C)O2)[C@H](C)[C@@H](O[C@@H]2O[C@H](C)C[C@H](N(C)C)[C@H]2O)[C@](C)(O)C[C@@H](C)C(=O)[C@H](C)[C@@H](O)[C@]1(C)O [Erythromycin]
[2]
  Details (uptake inhibitor mechanism): Prevents neomycin uptake
[1]; macrolide co-administered with aminoglycosides
  otoprotection against aminoglycoside ototoxicity during co-administration: antagonistic otoprotection broadly against aminoglycoside ototoxicity

## CNC(C)C1CCC(N)C(OC2C(N)CC(N)C(OC3OCC(C)(O)C(NC)C3O)C2O)O1 (stereo not shown) [Gentamicin (GEN), Gentamicin sulfate]
[1]
  ototoxic interaction with AZM: otoprotective antagonistic interactions
  shift toward antagonism in lateral line HC damage as compared to inhibition of the bacterial species on average: 37 %pt.
  EC75 shift: 13-fold
  ototoxic interaction with clarithromycin (CLM): antagonistic interactions

## NC[C@H]1O[C@H](O[C@H]2[C@H](O)[C@@H](O[C@H]3O[C@H](CO)[C@@H](O)[C@H](N)[C@H]3O)[C@H](N)C[C@@H]2N)[C@H](O)[C@@H](O)[C@@H]1O [Kanamycin (KAN), Kanamycin sulfate]
[1]
  ototoxic interaction with AZM: otoprotective antagonistic interactions
  shift toward antagonism in lateral line HC damage as compared to inhibition of the bacterial species on average: 45 %pt.
  EC75 shift: >16-fold
  ototoxic interaction with clarithromycin (CLM): antagonistic interactions

## NC[C@H]1O[C@H](O[C@H]2[C@H](O)[C@@H](O[C@H]3O[C@H](CO)[C@@H](O)[C@H](N)[C@H]3O)[C@H](N)C[C@@H]2N)[C@H](N)C[C@@H]1O [Tobramycin (TOB), Tobramycin]
[1]
  ototoxic interaction with AZM: otoprotective antagonistic interactions
  shift toward antagonism in lateral line HC damage as compared to inhibition of the bacterial species on average: 15 %pt.
  EC75 shift: >16-fold

## Capreomycin sulfate [Capreomycin (CAP)]
[1]
  HC inhibition: 90%
  EC50 shift: 1.9 fold
  EC75 shift: 2.8-fold
[1]; listed as CAP
  EC75 shift: 2.8 fold

Source: PMC10955247, “In vivo screening for toxicity-modulating drug interactions identifies antagonism that protects against ototoxicity in zebrafish” (Frontiers in Pharmacology, 2024)
